Values quoted from earlier work as cited in patent publication US11866384B2, “Compositions and their use in agricultural applications” (SYNSUS PRIVATE LABEL PARTNERS, LLC, priority 2018, dated 2024).

For dicyandiamide, the solubility in water is listed as “about 41 grams per liter”.
